The values that follow come from patent publication US10471050B2, “2-OXO-1,2-dihydropyridine-3,5-dicarboxamide compounds as bromodomain inhibitors” (GlaxoSmithKline Intellectual Property (No. 2) Limited, priority 2015, dated 2019).

One test addresses T1, BRD4 BD2 (Homo sapiens, UniProt O60885, Y97A).
T1 construct: BRD4 (1-477) (Y97A) and (Y390A); made in house; host or cells: E. coli (pET15b vector)
Briefly: BRD4 BD2 TR-FRET competition assay. The class given is binding. To be noted: single mutant tandem BRD4, read-out: pIC50 in the BRD4 BD2 assay (converted). On the procedure: Bromodomain binding was assessed utilising a time resolved fluorescent resonance energy transfer (TR-FRET) competition assay. To enable this approach a known, high affinity, pan-BET interacting small molecule was labelled with Alexa Fluor® 647, which is a far-red-fluorescent dye (Reference Compound X). Reference Compound X acts as a reporter of bromodomain binding and is the acceptor fluorophore component of the TR-FRET pair. Europium chelate, conjugated to an anti-6*His antibody, was utilised as the donor fluorophore in the TR-FRET pair. […] A TR-FRET signal is generated when the donor and acceptor fluorophores are in close proximity, between 20-80 Å, which is enabled in this assay by binding of Reference Compound X to the bromodomain protein.
In order to generate a TR-FRET signal, donor fluorophore is excited by a laser at λ337 nm, which subsequently leads to emission at λ618 nm. If the acceptor fluorophore is in close proximity then energy transfer can occur, which leads to emission of Alexa Fluor® 647 at λ665 nm. In the presence of competitor compound, Reference Compound X can be displaced from binding to the bromodomain. If displacement occurs, the acceptor fluorophore is no longer in proximity to the donor fluorophore, which prevents fluorescent energy transfer and, subsequently, a loss of Alexa Fluor® 647 emission at λ665 nm.
(§1) The competition of the compounds of formula (I) with Reference Compound X for binding to the BET family (BRD2, BRD3, BRD4 and BRDT) was assessed using protein truncates spanning both bromodomain 1 (BD1) and bromodomain 2 (BD2). In order to monitor differential binding to either BD1 or BD2, single residue mutations of key tyrosines to alanine were made in the acetyl lysine binding pockets. To validate this approach, a double residue mutant tandem domain protein was produced for each of the BET family members. Utilising a Fluorescence Polarisation approach, binding affinities for each of the single and double mutants for Reference Compound X were determined.
Final purification was completed by Superdex 200 prep grade size exclusion column. Purified protein was stored at −80° C. in 20 mM HEPES pH 7.5 and 100 mM NaCl.
All assay components were dissolved in an assay buffer composing of 50 mM HEPES pH7.4, 50 mM NaCl, 5% Glycerol, 1 mM DTT and 1 mM CHAPS. Reference Compound X was diluted, in assay buffer containing 20 nM single mutant, tandem bromodomain protein, to a concentration equivalent to 2*Kd for this bromodomain. The solution containing bromodomain and Reference Compound X was added to dose response dilutions of test compound or DMSO vehicle (a maximum of 0.5% DMSO is used in this assay) in Greiner 384 well black low volume microtitre plates and subsequently incubated for 30 minutes at room temperature. An equal volume of 3 nM of anti-6*His Europium chelate was added to all wells, followed by a further 30 minute incubation at room temperature. TR-FRET was detected using a Perkin Elmer Multimode plate reader, by exciting the donor fluorophore at λ337 nm and subsequently, after a delay of 50 μsecs, measuring emission of the donor and acceptor fluorophores at λ615 nm and λ665 nm, respectively. In order to control these assays, 16 replicates each of uninhibited (DMSO vehicle) and inhibited (10*IC50 concentrations of Example 11 of WO 2011/054846A1) TR-FRET assays were included on every microtitre plate.
cA four parameter curve fit of the following form was then applied: y=a+((b−a)/(1+(10^x/10^c)^d)
Where ‘a’ is the minimum, ‘b’ is the Hill slope, ‘c’ is the pIC50 and ‘d’ is the maximum.

For another test, the system named is BRD4 BD2 over BRD4 BD1. Briefly: Calculation of selectivity for BRD4 BD2 over BRD4 BD1 from the TR-FRET assays. The class given is binding, Human. The following applies: 1 log unit = 10 fold, 2 log unit = 100 fold. On the procedure: Bromodomain binding was assessed utilising a time resolved fluorescent resonance energy transfer (TR-FRET) competition assay. To enable this approach a known, high affinity, pan-BET interacting small molecule was labelled with Alexa Fluor® 647, which is a far-red-fluorescent dye (Reference Compound X). Reference Compound X acts as a reporter of bromodomain binding and is the acceptor fluorophore component of the TR-FRET pair. Europium chelate, conjugated to an anti-6*His antibody, was utilised as the donor fluorophore in the TR-FRET pair. The anti-6*His antibody binds selectively to a six Histidine purification epitope added to the amino-terminus of each of the BET tandem bromodomain protein constructs used in this study. […]
The competition of the compounds of formula (I) with Reference Compound X for binding to the BET family (BRD2, BRD3, BRD4 and BRDT) was assessed using protein truncates spanning both bromodomain 1 (BD1) and bromodomain 2 (BD2). […] Utilising a Fluorescence Polarisation approach, binding affinities for each of the single and double mutants for Reference Compound X were determined. […] In the TR-FRET competition assay, Reference Compound X is used at a concentration that is equivalent to the Kd for the non-mutated bromodomain, which ensures that no binding at the mutated bromodomain is detected. […]

The subject of test [1] is BET family (BRD2, BRD3, BRD4 and BRDT) tandem bromodomain proteins, Tyr to Ala mutants. Briefly: Fluorescence Polarisation binding of Reference Compound X to single and double mutant tandem BET proteins. The arrangement: species or system Human. On the procedure: as §1, with “determined. […] The affinities of the single mutated bromdomain tandem proteins for Reference Compound X were equi-potent with the corresponding non-mutated BET protein. […] In the TR-FRET competition assay, Reference Compound X is used at a concentration that is equivalent to the Kd for the non-mutated bromodomain, which ensures that no binding at the mutated bromodomain is detected.” for “determined.”
Protein production: Recombinant Human Bromodomains [(BRD2 (1-473) (Y113A) and (Y386A), BRD3 (1-435) (Y73A) and (Y348A) BRD4 (1-477) (Y97A) and (Y390A) and BRDT (1-397) (Y66A) and (Y309A)] were expressed in E. coli cells (in pET15b vector for BRD2/3/4 and in pET28a vector for BRDT) with a 6-His tag at the N-terminal. The His-tagged Bromodomain pellet was resuspended in 50 mM HEPES (pH7.5), 300 mM NaCl, 10 mM imidazole & 1 μl/ml protease inhibitor cocktail and extracted from the E. coli cells using sonication and purified using a nickel sepharose high performance column, the proteins were washed and then eluted with a linear gradient of 0-500 mM imidazole with buffer 50 mM HEPES (pH7.5), 150 mM NaCl, 500 mM imidazole, over 20 column volumes. Final purification was completed by Superdex 200 prep grade size exclusion column. Purified protein was stored at −80° C. in 20 mM HEPES pH 7.5 and 100 mM NaCl. Protein identity was confirmed by peptide mass fingerprinting and predicted molecular weight confirmed by mass spectrometry.
On the technique in general: In fluorescence polarisation assays a small probe gives low polarisation when free and higher when bound to something large.

As to `CNC(=O)c1cc(C(=O)NCCCC(=O)O)cn(Cc2ccccc2)c1=O` [Example 44, 4-(1-Benzyl-5-(methylcarbamoyl)-6-oxo-1,6-dihydropyridine-3-carboxamido)butanoic acid], the IC50 on BRD4 BD2 is 100 to 1000 nM. Further, the “selectivity for BRD4 BD2 over BRD4 BD1 (BRD4 BD2 pIC50 - BRD4 BD1 pIC50)” value in the test on BRD4 BD2 over BRD4 BD1 is under 1 log unit.

`CNC(=O)c1cc(C(=O)NCCc2ccn[nH]2)cn(Cc2ccccc2)c1=O` [Example 50, N^5-(2-(1H-Pyrazol-5-yl)ethyl)-1-benzyl-N^3-methyl-2-oxo-1,2-dihydropyridine-3,5-dicarboxamide]: the IC50 at BRD4 BD2 was 100 to 1000 nM.

As to `CNC(=O)c1cc(C(=O)Nc2ccn(C)n2)cn(Cc2ccccc2)c1=O` [Example 51, 1-Benzyl-N^3-methyl-N^5-(1-methyl-1H-pyrazol-3-yl)-2-oxo-1,2-dihydropyridine-3,5-dicarboxamide], the IC50 on BRD4 BD2 is 100 to 1000 nM.

Take `CNC(=O)c1cc(C(=O)NCCc2cnn(C)c2)cn(Cc2ccccc2)c1=O` [Example 52, 1-Benzyl-N^3-methyl-N^5-(2-(1-methyl-1H-pyrazol-4-yl)ethyl)-2-oxo-1,2-dihydropyridine-3,5-dicarboxamide]: at BRD4 BD2, the IC50 was 100 to 1000 nM.

For the molecule `CNC(=O)c1cc(C(=O)Nc2cnn(C)c2)cn(Cc2ccccc2)c1=O` [Example 53, 1-Benzyl-N^3-methyl-N^5-(1-methyl-1H-pyrazol-4-yl)-2-oxo-1,2-dihydropyridine-3,5-dicarboxamide], the IC50 at BRD4 BD2 is at most 100 nM.

Regarding `COc1ccc2c(c1)C(c1ccc(Cl)cc1)=N[C@@H](CC(=O)NCCCCCNC(=O)CCCCCC1(C)/C(=C/C=C/C=C/C3=[N+](CCCCS(=O)(=O)O)c4ccc(S(=O)(=O)O)cc4C3(C)C)N(CCCCS(=O)(=O)[O-])c3ccc(S(=O)(=O)O)cc31)c1nnc(C)n1-2` (stereo partly drawn) [Reference Compound X], the “reduction in Kd, double mutant tandem proteins versus non mutated wild type tandem BET proteins” value in test [1] (double residue Tyr to Ala mutant tandem protein of each BET family member) is reported as over 1000 fold. For the same molecule, in test [1] (single Tyr to Ala mutants), the “affinity of single mutated bromodomain tandem proteins versus corresponding non-mutated BET protein” value is listed as “equi-potent”. In addition, in test [1] (single mutation of Tyrosine to Alanine), the “reduction of Kd of the interaction between the mutated bromodomain and Reference Compound X” value is on record as over 1000 fold.
